Data on nine compounds can be found in US20250059188A1, “ARYLSULPHONAMIDE COMPOUNDS” (Anaxis Pharma Pty Ltd, priority 2021, published 2025).

pIC50: −log10 of the molar value.

This test relates to Immortalised Mouse Dermal Fibroblasts (MDFs). The test can be described thus: Inhibition of TSI induced necroptosis in mouse dermal fibroblasts (CellTitre-Glo). The note with it: Mus musculus, Fibroblast, 3 h, MDF cells, TSI cocktail (TNF, Smac mimetic, IDN-6556), read-out: Inhibition of TSI-induced necroptosis (IC50 cell-based assay) in MDF. The procedure, abridged:
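Immortalised MDFs (2200 cells/well, DMEM + 7.4% FBS) pretreated 30 min with compound (36 μM top, 1:3, 10 points, 0.3% DMSO), then 3 h with TNF 100 ng/ml, Smac mimetic 500 nM and IDN-6556 10 μM at 37 °C. Viability by CellTiter-Glo luminescence; IC50 from 4-parameter logistic fit.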

One may read the pIC50 as −log10 of the IC50, conventionally taken in molar units. As for `C[C@H](Oc1cc(-c2nn(C)c3c(-c4cnn(C5CCC(F)(F)C5)c4)cnc(N)c23)ccc1NS(=O)(=O)C(F)F)c1ccc(F)cc1` (stereo partly drawn) [Compound 120, N-(4-{4-amino-7-[1-(3,3-difluorocyclopentyl)-1H-pyrazol-4-yl]-1-methyl-1H-pyrazolo[4,3-c]pyridin-3-yl}-2-[(1S)-1-(4-fluorophenyl)ethoxy]phenyl)-1,1-difluoromethanesulfonamide], the pIC50 is 5.00 to 6.00.

Consider `CC1C(n2cc(-c3cnc(N)c4c(-c5ccc(NS(=O)(=O)C(F)F)c(O[C@@H](C)c6ccc(F)cc6)c5)nn(C)c34)cn2)CN1C` (stereo partly drawn) [Compound 147, N-(4-(4-amino-7-(1-(1,2-dimethylazetidin-3-yl)-1H-pyrazol-4-yl)-1-methyl-1H-pyrazolo[4,3-c]pyridin-3-yl)-2-((S)-1-(4-fluorophenyl)ethoxy)phenyl)-1,1-difluoromethanesulfonamide], for which the pIC50 is 6.00 to 7.00.

On to `C[C@H](Oc1cc(-c2nn(C)c3c(-c4ccc5c(cnn5C)c4)cnc(N)c23)ccc1NS(=O)(=O)C(F)F)c1ccc(F)cc1` [Compound 166, (S)-N-(4-(4-amino-1-methyl-7-(1-methyl-1H-indazol-5-yl)-1H-pyrazolo[4,3-c]pyridin-3-yl)-2-(1-(4-fluorophenyl)ethoxy)phenyl)-1,1-difluoromethanesulfonamide], for which the pIC50 was 5.00 to 6.00. The result for `CC(=O)N1CCC(n2cc(-c3cnc(N)c4c(-c5ccc(NS(=O)(=O)C(F)F)c(O[C@@H](C)c6ccc(F)cc6)c5)nn(C)c34)cn2)CC1` [Compound 109, (S)—N-(4-(7-(1-(1-acetylpiperidin-4-yl)-1H-pyrazol-4-yl)-4-amino-1-methyl-1H-pyrazolo[4,3-c]pyridin-3-yl)-2-(1-(4-fluorophenyl)ethoxy)phenyl)-1,1-difluoromethanesulfonamide] reads 6.00 to 7.00; that for `C[C@H](Oc1cc(-c2nn(C)c3c(-c4cnn(C5CCC(F)(F)CC5)c4)cnc(N)c23)ccc1NS(=O)(=O)C(F)F)c1ccc(F)cc1` [Compound 146, (S)-N-(4-(4-amino-7-(1-(4,4-difluorocyclohexyl)-1H-pyrazol-4-yl)-1-methyl-1H-pyrazolo[4,3-c]pyridin-3-yl)-2-(1-(4-fluorophenyl)ethoxy)phenyl)-1,1-difluoromethanesulfonamide], 5.00 to 6.00; that for `C[C@H](Oc1cc(-c2nn(C)c3c(-c4cnn(C5CCN(C)CC5)c4)cnc(N)c23)ccc1NS(=O)(=O)C(F)F)c1ccc(F)cc1` [Compound 46, (S)-N-(4-(4-amino-1-methyl-7-(1-(1-methylpiperidin-4-yl)-1H-pyrazol-4-yl)-1H-pyrazolo[4,3-c]pyridin-3-yl)-2-(1-(4-fluorophenyl)ethoxy)phenyl)-1,1-difluoromethanesulfonamide], 6.00 to 7.00. With `[2H]C([2H])([2H])N1CCC(n2cc(-c3cnc(N)c4c(-c5ccc(NS(=O)(=O)C(F)F)c(O[C@@H](C)c6ccc(F)cc6)c5)nn(C)c34)cn2)CC1` [Compound 103] the figure was 5.00 to 6.00; with `COCC(Oc1cc(-c2nn(C)c3c(-c4cnn(C5CCN(C)CC5)c4)cnc(N)c23)ccc1NS(=O)(=O)C(F)F)c1ccc(F)cc1` (stereo not drawn) [Compound 139, N-(4-(4-amino-1-methyl-7-(1-(1-methylpiperidin-4-yl)-1H-pyrazol-4-yl)-1H-pyrazolo[4,3-c]pyridin-3-yl)-2-(1-(4-fluorophenyl)-2-methoxyethoxy)phenyl)-1,1-difluoromethanesulfonamide], 5.00 to 6.00. With `C[C@H](Oc1cc(-c2nn(C)c3c(-c4cnn(C5(CC#N)COC5)c4)cnc(N)c23)ccc1NS(=O)(=O)C(F)F)c1ccc(F)cc1` [Compound 98, (S)-N-(4-(4-amino-7-(1-(3-(cyanomethyl)oxetan-3-yl)-1H-pyrazol-4-yl)-1-methyl-1H-pyrazolo[4,3-c]pyridin-3-yl)-2-(1-(4-fluorophenyl)ethoxy)phenyl)-1,1-difluoromethanesulfonamide], the pIC50 was 5.00 to 6.00.
